Test results taken from PMC6792352, “Limited Chemical Structural Diversity Found to Modulate Thyroid Hormone Receptor in the Tox21 Chemical Library” (Environmental Health Perspectives, 2019).
Structures can show the parent of a compound that is named as a salt.

Assay: in vitro
Conditions: rat, gh3-tre-luc cells, AC50 (uM) modified / 1000

| Compound | CC50 at 24 h |
| --- | --- |
| CCC(C)(C)c1cc(O)c(C(C)(C)CC)cc1O [2,5-Bis(2-methylbutan-2-yl)benzene-1,4-diol] | 53.8 µM |
| C[Si](C)(C)Cl [Chlorotrimethylsilane] | > 90 µM |
| COc1ccc(CCC(=O)c2c(O)cc(O[C@@H]3O[C@H](CO)[C@@H](O)[C@H](O)[C@H]3O[C@@H]3O[C@@H](C)[C@H](O)[C@@H](O)[C@H]3O)cc2O)cc1O [Neohesperidin dihydrochalcone] | > 90 µM |
| C[N+](C)=CCl [N-(Chloromethylidene)-N-methylmethanaminium chloride] | > 90 µM |
| CC1(C)[C@H]2CC[C@]1(C)C(=O)C2=O [(+)Camphorquinone] | > 90 µM |
| CCOc1ccccc1OCCN[C@H](C)Cc1ccc(OC)c(S(N)(=O)=O)c1 [Tamsulosin hydrochloride] | > 50 µM |
| Nc1c(Cl)c(F)nc(OCC(=O)O)c1Cl [Fluroxypyr] | > 90 µM |
| Oc1ccc(C(O)CNCCCCCCNCC(O)c2ccc(O)c(O)c2)cc1O (stereo not drawn) [Hexoprenaline sulfate] | 20.9 µM |
| CCN1C(=O)c2ccccc2C1Nc1ccc(OCCN2CCCCC2)cc1 (stereo not drawn) [Etomidoline] | > 50 µM |
| CCCCCC=CCC(=O)OC [Methyl 3-nonenoate] | > 90 µM |
| CCCCC(=O)OCC(=O)[C@]1(O)Cc2c(O)c3c(c(O)c2[C@@H](O[C@H]2C[C@H](NC(=O)C(F)(F)F)[C@H](O)[C@H](C)O2)C1)C(=O)c1c(OC)cccc1C3=O [Valrubicin] | 8.11 µM |
| CCOc1cc(C=O)ccc1O [3-Ethoxy-4-hydroxybenzaldehyde] | > 50 µM |
| CCC=CCCOC(=O)c1ccccc1O (stereo in doubt) [(3Z)-Hex-3-en-1-yl salicylate] | > 90 µM |
| Cc1cc2c(s1)Nc1ccccc1N=C2N1CCN(C)CC1 [Olanzapine] | 15.7 µM |
| C1CCC(C(CC2CCCCN2)C2CCCCC2)CC1 (stereo not drawn) [Perhexiline maleate] | 4.32 µM |
| CC(Oc1cccc(Cl)c1)C(=O)O (stereo not drawn) [Cloprop] | > 90 µM |
| O=c1oc2c(O)c(O)cc3c(=O)oc4c(O)c(O)cc1c4c23 [Ellagic acid] | > 50 µM |
| O=c1c(O)c(-c2ccc(O)cc2O)oc2cc(O)cc(O)c12 [Morin hydrate] | > 90 µM |
| O=C(Nc1ccccc1)N(Cc1ccc(Cl)cc1)C1CCCC1 [Pencycuron] | 54.7 µM |
| C=CC(=C)C [Isoprene] | > 90 µM |
| O=C(NCCO[N+](=O)[O-])c1cccnc1 [Nicorandil] | > 50 µM |
| Clc1ccccc1-c1nnc(-c2ccccc2Cl)nn1 [Clofentezine] | > 90 µM |
| CCc1c(C(=O)NN2CCCCC2)nn(-c2ccc(Cl)cc2Cl)c1-c1ccc(Br)cc1 [Surinabant] | 12.3 µM |
| C[C@]12CCC(=O)C=C1[C@@H]1C[C@@H]1[C@H]1[C@@H]3[C@@H]4C[C@@H]4[C@@]4(CCC(=O)O4)[C@@]3(C)CC[C@@H]12 [Drospirenone] | > 50 µM |
| NC(=O)Cc1cccc2ccccc12 [1-Naphthaleneacetamide] | > 90 µM |
| CCc1cccc(N(C)C(N)=Nc2cccc3ccccc23)c1 [Aptiganel hydrochloride] | 19.6 µM |
| Cc1cc2cc3c(C)cc(=O)oc3c(C)c2o1 [Trioxsalen] | > 20 µM |
| O=C(O)C1=NN(c2ccc(S(=O)(=O)O)cc2)C(=O)C1 [Sodium 5-oxo-1-(4-sulfophenyl)-4,5-dihydro-1H-pyrazole-3-carboxylate] | > 90 µM |
| CCCC(C)C(O)CC (stereo not drawn) [4-Methyl-3-heptanol] | > 90 µM |

Same assay, conditions: rat, gh3-tre-luc cells, AC50 (uM) modified / 1000, Tox21_110001=Tox21_113077; viability, 1 nM T3 present, 24 h

| Compound | CC50 at 24 h |
| --- | --- |
| CNC(C)CC1CCCCC1 (racemic) [(+/-) Propylhexedrine] | > 50 µM |

Same assay, conditions: rat, gh3-tre-luc cells, AC50 (uM) modified / 1000, Tox21_110001=Tox21_202792; viability, 1 nM T3 present, 24 h

| Compound | CC50 at 24 h |
| --- | --- |
| Clc1cc2c(cc1Cl)Oc1cc(Cl)c(Cl)cc1O2 [2,3,7,8-Tetrachlorodibenzo-p-dioxin] | > 0.3 µM |

Same assay, conditions: rat, gh3-tre-luc cells, AC50 (uM) modified / 1000, Tox21_110001=Tox21_301428; viability, 1 nM T3 present, 24 h

| Compound | CC50 at 24 h |
| --- | --- |
| COC(=O)C1(O)c2ccccc2-c2ccccc21 [Flurenol-methyl] | > 90 µM |

Same assay, conditions: rat, gh3-tre-luc cells, AC50 (uM) modified / 1000, Tox21_110001=Tox21_302404; viability, 1 nM T3 present, 24 h

| Compound | CC50 at 24 h |
| --- | --- |
| CCCCC(CC)COC(=O)c1c(Br)c(Br)c(Br)c(Br)c1C(=O)OCC(CC)CCCC (stereo not drawn) [Bis(2-ethylhexyl) tetrabromophthalate] | > 70 µM |
